Legend:
[1] = tested on: TMD-8 cells; test: TMD-8 proliferation inhibition experiment; type: cell-based; details: human diffuse large B lymphoma cells, three days incubation
Protocol: TMD-8 cells are human diffuse large B lymphoma (Mingzhou Bio, MZ-0832), cultured in 10% FBS+1% PS 1640 medium; OCI-LY10 is human diffuse large B lymphoma (BeNa Culture Collection, BNCC337742), cultured in 10% FBS+1% PS IMDM. Day 1: Cells at logarithmic growth phase were taken, counted and inoculated 600 TMD-8 or 2000 OCI-LY10 cells in a 384-well cell culture plate and cultured overnight. Day 2: A 3-fold gradient concentration stock solution of 400× compound was prepared with DMSO, and diluted 40-fold to a 10× compound stock solution with culture medium. The 10× compound stock solution was added to each cell culture well with a final concentration of 1× compound stock solution and a DMSO content of 0.25%. DMSO was used as experimental control, and culture medium was used as blank control. The incubation was continued for three days after compound addition. On the fifth day, 25 μL of […] was added to each well, mixed well and incubated for 10 minutes, then the chemiluminescence value (RLU value) was read. The cell proliferation inhibition rate (%)=(RLUcontrol−RLUcompound)/(RLUcontrol−RLUblank)×100% was calculated. The compound gradient dilution concentration and the corresponding cell proliferation inhibition rate were fit by using XLFit four-parameter method, and IC50 value was calculated.

[2] = molecular target: BTK (Homo sapiens (Human), UniProt Q06187); test: BTK enzyme experiment (ADP-Glo kinase assay); type: biochemical; details: 10 nM BTK, ATP 125 μM, Poly(Glu4, Tyr1), 90 minutes at 20° C.; read-out: BTK(WT) IC50
Protocol: (§1) A 3-fold gradient concentration stock solution of 1000× compound was prepared using DMSO and diluted 100-fold to 10× compound stock solution using reaction buffer (50 mM HEPES, pH 7.5, 0.0015% Briji-35, 2 mM DTT, 10 mM MgCl2), and the 10× compound stock solution was transferred to a 384-well plate. Enzyme reactions were set up with BTK Kinase Enzyme System (Promega Catalog #V2941) or BTK (C481S) Kinase Enzyme System (Promega Catalog #VA7033). First, a 2× enzyme solution containing 10 nM BTK or 10 nM BTK C481S was prepared with reaction buffer and added to the plate, and incubated with the compound for 10 minutes. […] Finally, the kinase activity was detected according to the experimental steps provided by ADP-Glo™ kinase Assay Kit (Promega, #V9101), and finally the luminescence chemiluminescence value was read. DMSO was used as the maximum signal value, and adding no enzyme was used as the minimum signal value. The inhibition rate of the compound (%)=(maximum signal value−compound signal value)/(maximum signal value−minimum signal value)×100% was calculated. The compound gradient dilution concentration and the corresponding inhibition rate of the enzyme activity were fit by using XLFit four-parameter method, and IC50 value was calculated.

[3] = molecular target: BTK (C481S) (Homo sapiens (Human), UniProt Q06187, C481S); test: BTK C481S enzyme experiment (ADP-Glo kinase assay); type: biochemical; details: 10 nM BTK C481S, ATP 125 μM, Poly(Glu4, Tyr1), 90 minutes at 20° C.
Protocol: as §1

Chain of BTK (Q06187 whole entry): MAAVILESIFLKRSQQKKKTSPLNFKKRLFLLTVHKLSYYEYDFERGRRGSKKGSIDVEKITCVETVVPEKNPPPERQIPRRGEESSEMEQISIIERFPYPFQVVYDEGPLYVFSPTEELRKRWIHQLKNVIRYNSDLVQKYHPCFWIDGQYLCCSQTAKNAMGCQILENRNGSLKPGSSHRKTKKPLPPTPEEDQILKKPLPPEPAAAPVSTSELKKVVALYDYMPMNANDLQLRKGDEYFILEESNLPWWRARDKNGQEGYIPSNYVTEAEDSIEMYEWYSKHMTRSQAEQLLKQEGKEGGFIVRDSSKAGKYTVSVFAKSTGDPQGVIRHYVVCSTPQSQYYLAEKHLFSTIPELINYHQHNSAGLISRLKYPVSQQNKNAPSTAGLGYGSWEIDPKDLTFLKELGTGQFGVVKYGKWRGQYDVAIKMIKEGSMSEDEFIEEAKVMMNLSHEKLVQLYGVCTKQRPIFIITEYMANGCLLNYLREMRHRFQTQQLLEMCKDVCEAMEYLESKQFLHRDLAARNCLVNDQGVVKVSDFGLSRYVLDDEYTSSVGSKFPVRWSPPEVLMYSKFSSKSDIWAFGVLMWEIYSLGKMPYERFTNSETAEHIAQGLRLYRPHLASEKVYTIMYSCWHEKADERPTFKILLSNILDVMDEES
Chain of BTK (C481S) (Q06187 whole entry C481S): as the sequence (Q06187 whole entry) above, with C481S counted along it

| Structure (SMILES) | IC50 [1] [nM] | IC50 [2] [nM] | IC50 [3] [nM] | IC50 ([1]; Homo sapiens, TMD8, 72 h) [nM] |
| --- | --- | --- | --- | --- |
| O=C(c1ccc(Oc2ccccc2)cc1Cl)c1c[nH]c2ncc3c(c12)N[C@@]1(CCOC1)C(=O)N3 (single isomer, unassigned) [Z1-1] | 183 | 67.1 | 23.6 | – |
| O=C(c1ccc(Oc2ccccc2)cc1Cl)c1c[nH]c2ncc3c(c12)N[C@]1(CCOC1)C(=O)N3 (single isomer, unassigned) [Z1-2] | 232 | 64.7 | 27.2 | – |
| CC(=O)N1CC[C@@]2(C1)Nc1c(cnc3[nH]cc(C(=O)c4ccc(Oc5ccccc5)cc4Cl)c13)NC2=O (single isomer, unassigned) [Z4-2] | 1200 | 46.1 | 19.8 | – |
| C[C@]1(CO)Nc2c(cnc3[nH]cc(C(=O)c4ccc(Oc5ccccc5)cc4Cl)c23)NC1=O (single isomer, unassigned) [Z9-1] | 389 | 20 | 20 | – |
| O=C(c1ccc(Oc2ccccc2)cc1Cl)c1c[nH]c2ncc3c(c12)N[C@@]1(CC[C@H](O)C1)C(=O)N3 (single isomer, unassigned) [Z24-1] | 55.4 | 3.5 | 3.7 | – |
| O=C(c1ccc(Oc2ccccc2)cc1Cl)c1c[nH]c2ncc3c(c12)N[C@]1(CC[C@H](O)C1)C(=O)N3 (single isomer, unassigned) [Z24-2] | 63.1 | 5 | 4.7 | – |
| COC[C@]1(C)Nc2c(cnc3[nH]cc(C(=O)c4ccc(Oc5cc(C)nc(Cl)c5)cc4Cl)c23)NC1=O [Z135, (S)-9-(2-chloro-4-((2-chloro-6-methylpyridin-4-yl)oxy)benzoyl)-2-(methoxymethyl)-2-methyl-1,2,4,7-tetrahydro-3H-pyrrolo[3′,2′:5,6]pyrido[3,4-b]pyrazin-3-one] | – | 58.9 | 88.8 | – |
| COCCN1C(=O)[C@](C)(COC)Nc2c1cnc1[nH]cc(C(=O)c3ccc(Oc4ccccc4)cc3Cl)c21 [Z142] | – | 35.2 | 19.7 | – |
| [2H]C([2H])([2H])OC[C@]1(C)Nc2c(cnc3[nH]cc(C(=O)c4ccc(Cn5cccn5)cc4Cl)c23)NC1=O [Z170, (S)-9-(4-((1H-pyrazol-1-yl)methyl)-2-chlorobenzoyl)-2-((methoxy-d3)methyl)-2-methyl-1,2,4,7-tetrahydro-3H-pyrrolo[3′,2′:5,6]pyrido[3,4-b]pyrazin-3-one] | – | 28.4 | 36.5 | – |
| [2H]C([2H])([2H])OC[C@]1(C)Nc2c(cnc3[nH]cc(C(=O)c4ccc(Cn5ccc(C)n5)cc4Cl)c23)NC1=O [Z174, (S)-9-(2-chloro-4-((3-methyl-1H-pyrazol-1-yl)methyl)benzoyl)-2-((methoxy-d3)methyl)-2-methyl-1,2,4,7-tetrahydro-3H-pyrrolo[3′,2′:5,6]pyrido[3,4-b]pyrazin-3-one] | – | 76.6 | 115 | – |
| [2H]C([2H])([2H])OC[C@]1(C)Nc2c(cnc3[nH]cc(C(=O)c4ccc(Cn5nccc5C)cc4Cl)c23)NC1=O [Z175, (S)-9-(2-chloro-4-((5-methyl-1H-pyrazol-1-yl)methyl)benzoyl)-2-((methoxy-d3)methyl)-2-methyl-1,2,4,7-tetrahydro-3H-pyrrolo[3′,2′:5,6]pyrido[3,4-b]pyrazin-3-one] | – | 74.4 | 76.5 | – |
| [2H]C([2H])([2H])Oc1cccc(F)c1Oc1ccc(C(=O)c2c[nH]c3ncc4c(c23)N[C@@](C)(COC)C(=O)N4)c(Cl)c1 [Z187] | – | – | – | 41.3 |
| COC[C@]1(C)Nc2c(cnc3[nH]cc(C(=O)c4ccc(Oc5cc(C)cc(C)n5)cc4F)c23)NC1=O [Z189-1, (S)-9-(4-((4,6-dimethylpyridin-2-yl)oxy)-2-fluorobenzoyl)-2-(methoxymethyl)-2-methyl-1,2,4,7-tetrahydro-3H-pyrrolo[3′,2′:5,6]pyrido[3,4-b]pyrazin-3-one] | – | 50.4 | 60.3 | – |
| [2H]C([2H])([2H])N1C(=O)[C@](C)(COC)Nc2c1cnc1[nH]cc(C(=O)c3ccc(Oc4ccccc4)cc3Cl)c21 [Z190, (S)-9-(2-chloro-4-phenoxybenzoyl)-2-(methoxymethyl)-2-methyl-4-(methyl-d3)-1,2,4,7-tetrahydro-3H-pyrrolo[3′,2′:5,6]pyrido[3,4-b]pyrazin-3-one] | – | 16.3 | 20.1 | – |
| [2H]C([2H])([2H])OC[C@]1(C)Nc2c(cnc3[nH]cc(C(=O)c4ccc(Oc5ccccc5)cc4Cl)c23)N(C([2H])([2H])[2H])C1=O [Z193, (S)-9-(2-chloro-4-phenoxybenzoyl)-2-((methoxy-d3)methyl)-2-methyl-4-(methyl-d3)-1,2,4,7-tetrahydro-3H-pyrrolo[3′,2′:5,6]pyrido[3,4-b]pyrazin-3-one] | – | 19.1 | 21.9 | – |
| COC[C@]1(C)Nc2c(cnc3[nH]cc(C(=O)c4ccc(OC)c(F)c4Cl)c23)NC1=O [Z194, (S)-9-(2-chloro-3-fluoro-4-methoxybenzoyl)-2-(methoxymethyl)-2-methyl-1,2,4,7-tetrahydro-3H-pyrrolo[3′,2′:5,6]pyrido[3,4-b]pyrazin-3-one] | – | 47.3 | 77.4 | – |
| COC[C@]1(C)Nc2c(cnc3[nH]cc(C(=O)c4c(F)cccc4Cl)c23)NC1=O [Z196, (S)-9-(2-chloro-6-fluorobenzoyl)-2-(methoxymethyl)-2-methyl-1,2,4,7-tetrahydro-3H-pyrrolo[3′,2′:5,6]pyrido[3,4-b]pyrazin-3-one] | – | 26.4 | 25.8 | – |
| CC1(C)COc2cnc3[nH]cc(C(=O)c4ccccc4Cl)c3c2N1 [Z198, (2-chlorophenyl)(2,2-dimethyl-1,2,3,7-tetrahydropyrrolo[3′,2′:5,6]pyrido[3,4-b][1,4]oxazin-9-yl)methanone] | – | 17.4 | 15.1 | – |
| COC[C@]1(C)Nc2c(cnc3[nH]cc(C(=O)c4ccccc4Cl)c23)N=C1SC [Z199, (S)-(2-chlorophenyl)(2-(methoxymethyl)-2-methyl-3-(methylthio)-2,7-dihydro-1H-pyrrolo[3′,2′:5,6]pyrido[3,4-b]pyrazin-9-yl)methanone] | – | 42.6 | 23.2 | – |
| COC[C@]1(C)Nc2c(cnc3[nH]cc(C(=O)c4ccccc4Cl)c23)N=C1OC [Z200, (S)-(2-chlorophenyl)(3-methoxy-2-(methoxymethyl)-2-methyl-2,7-dihydro-1H-pyrrolo[3′,2′:5,6]pyrido[3,4-b]pyrazin-9-yl)methanone] | – | 18.8 | 9.9 | – |
| COC[C@]1(C)Nc2c(cnc3[nH]cc(C(=O)c4ccc(Oc5ccccc5)cc4Cl)c23)N=C1SC [Z201, (S)-(2-chloro-4-phenoxyphenyl)(2-(methoxymethyl)-2-methyl-3-(methylthio)-2,7-dihydro-1H-pyrrolo[3′,2′:5,6]pyrido[3,4-b]pyrazin-9-yl)methanone] | – | 122 | 215 | – |
| COC[C@]1(C)Nc2c(cnc3[nH]cc(C(=O)c4ccc(Oc5ccccc5)cc4Cl)c23)NC1=S [Z202, (S)-(2-chloro-4-phenoxyphenyl)(2-(methoxymethyl)-2-methyl-3-thioxo-2,3,4,7-tetrahydro-1H-pyrrolo[3′,2′:5,6]pyrido[3,4-b]pyrazin-9-yl)methanone] | – | 23.8 | 27.8 | – |
| CCSC1=Nc2cnc3[nH]cc(C(=O)c4ccc(Oc5ccccc5)cc4Cl)c3c2N[C@@]1(C)COC [Z203, (S)-(2-chloro-4-phenoxyphenyl)(3-(ethylthio)-2-(methoxymethyl)-2-methyl-2,7-dihydro-1H-pyrrolo[3′,2′:5,6]pyrido[3,4-b]pyrazin-9-yl)methanone] | – | 75.1 | 142 | – |
